In US10294202B2, “Pyrrolidinones as herbicides” (FMC Corporation, priority 2013, dated 2019):

Key:
crabgrass, large = test: Test C pre-/postemergence herbicide test; type: in vivo, Digitaria sanguinalis
In short: (§1)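 Pre-emergence: seeds sown in loam/sand blend and treated with compound in surfactant-containing solvent. Post-emergence: plants at 2–18 cm (1- to 4-leaf stage) in peat-based medium sprayed with the same formulation. Visual rating versus controls after 13–15 days in greenhouse, scale 0 (no effect) to 100 (complete control).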

blackgrass = test: Test C pre-/postemergence herbicide test; type: in vivo, Alopecurus myosuroides
In short: as §1

ducksalad = test: Test B flooded paddy test; type: in vivo, Heteranthera limosa; details: 500 g ai/ha, Flood; scale of 0 to 100 where 0 is no effect and 100 is complete control
In short: (§2)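 Treatment was made at the 2-leaf stage by dosing the standing floodwater, kept 3 cm above soil level for the whole test. Greenhouse exposure lasted 13 to 15 days. Response is a visual percent rating relative to controls, where a dash indicates no test result.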

wheat = test: Test A pre-/postemergence herbicide test; type: in vivo, Triticum aestivum; details: Postemergence
In short: (§3)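 Seeds in loam–sand blend received preemergence directed soil spray; separately, plants 2–10 cm at one- to two-leaf stage received postemergence spray, both with test chemicals in non-phytotoxic solvent with surfactant. After ~10 days in greenhouse, injury rated visually against untreated controls, 0 (no effect) to 100 (complete control).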

lambsquarters = test: Test C pre-/postemergence herbicide test; type: in vivo, Chenopodium album
In short: as §1

giant foxtail = test: Test A pre-/postemergence herbicide test; type: in vivo, Setaria faberii
In short: as §3

pigweed = test: Test C pre-/postemergence herbicide test; type: in vivo, Amaranthus retroflexus
In short: as §1

nutsedge, yellow = test: Test C pre-/postemergence herbicide test; type: in vivo, Cyperus esculentus
In short: as §1

oilseed rape = test: Test C pre-/postemergence herbicide test; type: in vivo, Brassica napus
In short: as §1

barnyardgrass [1] = test: Test C pre-/postemergence herbicide test; type: in vivo, Echinochloa crus-galli
In short: as §1

barnyardgrass [2] = test: Test B flooded paddy test; type: in vivo, Echinochloa crus-galli; details: 500 g ai/ha, Flood; scale of 0 to 100 where 0 is no effect and 100 is complete control
In short: as §2

rice = test: Test B flooded paddy test; type: in vivo, Oryza sativa; details: 500 g ai/ha, Flood; scale of 0 to 100 where 0 is no effect and 100 is complete control
In short: as §2

[3] = Preemergence, 31 g ai/ha, scale 0 to 100, 0 is no effect and 100 is complete control
[4] = Preemergence, 62 g ai/ha, scale 0 to 100 (0 no effect, 100 complete control)
[5] = Preemergence, 125 g ai/ha, scale 0 to 100
[6] = 125 g ai/ha, visual rating on 0 to 100 scale (0 no effect, 100 complete control), approx. 10 days
[7] = 500 g ai/ha, 0 to 100 scale (0 no effect, 100 complete control)
[8] = Postemergence, 125 g ai/ha, visual rating on 0 to 100 scale (0 no effect, 100 complete control), approx. 10 days
[9] = Postemergence, 500 g ai/ha, 0 to 100 scale (0 no effect, 100 complete control)
[10] = Preemergence, 125 g ai/ha, 0 to 100 scale where 0 is no effect and 100 is complete control
[11] = Preemergence, 500 g ai/ha, visual rating on 0 to 100 scale (0 no effect, 100 complete control)
[12] = Preemergence, 125 g ai/ha, scale 0 to 100 (0 no effect, 100 complete control)
[13] = Postemergence, 31 g ai/ha, scale 0 to 100 (0 no effect, 100 complete control)
[14] = Postemergence, 62 g ai/ha, scale 0 (no effect) to 100 (complete control)
[15] = Postemergence, 125 g ai/ha, scale 0 to 100 (0 no effect, 100 complete control)
[16] = Postemergence, 250 g ai/ha, scale 0 to 100 (0 no effect, 100 complete control)

O=C1NCC(c2cccc(Br)c2)C1C(=O)Nc1ccccc1F (stereo not drawn) [Compound 307]
85: Plant response rating (scale of 0 to 100), Lambsquarters (lambsquarters; Preemergence, 250 g ai/ha) | Plant response rating, Barnyardgrass (barnyardgrass [1]; [12])
98: Plant response rating, Ducksalad (ducksalad)
5: Plant response rating (scale of 0 to 100), Blackgrass (blackgrass; Preemergence, 250 g ai/ha) | Plant response rating (scale of 0 to 100), Oilseed Rape (oilseed rape; Preemergence, 250 g ai/ha)
100: Plant response rating (scale of 0 to 100), Crabgrass, Large (crabgrass, large; Preemergence, 250 g ai/ha)
65: Plant response rating, Barnyardgrass (barnyardgrass [2])
90: Crabgrass, Large plant response rating (crabgrass, large; [3]) | Foxtail, Giant plant response rating (giant foxtail; [11])
80: Plant response rating, Foxtail, Giant (giant foxtail; [9]) | Plant response rating, Foxtail, Giant (giant foxtail; [10])
35: Plant response rating (scale of 0 to 100), Pigweed (pigweed; Preemergence, 250 g ai/ha)
70: Plant response rating, Foxtail, Giant (giant foxtail; [8]) | Barnyardgrass plant response rating (barnyardgrass [1]; [4])
10: Plant response rating, Blackgrass (blackgrass; [5]) | Plant response rating, Lambsquarters (lambsquarters; [5])
0: Blackgrass plant response rating (blackgrass; [3]) | Blackgrass plant response rating (blackgrass; [4]) | Plant response rating, Wheat (wheat; [6]) | Lambsquarters plant response rating (lambsquarters; [3]) | Lambsquarters plant response rating (lambsquarters; [4]) | Pigweed plant response rating (pigweed; [3]) | Pigweed plant response rating (pigweed; [4]) | Nutsedge, Yellow plant response rating (nutsedge, yellow; [3]) | Nutsedge, Yellow plant response rating (nutsedge, yellow; [4]) | Plant response rating, Nutsedge, Yellow (nutsedge, yellow; [5]) | Plant response rating (scale of 0 to 100), Nutsedge, Yellow (nutsedge, yellow; Preemergence, 250 g ai/ha) | Oilseed Rape plant response rating (oilseed rape; [3]) | Oilseed Rape plant response rating (oilseed rape; [4]) | Plant response rating, Oilseed Rape (oilseed rape; [5]) | Plant response rating, Rice (rice)
40: Plant response rating, Pigweed (pigweed; [5]) | Barnyardgrass plant response rating (barnyardgrass [1]; [3])
30: Plant response rating, Wheat (wheat; [7])
95: Crabgrass, Large plant response rating (crabgrass, large; [4]) | Plant response rating, Crabgrass, Large (crabgrass, large; [5]) | Plant response rating (scale of 0 to 100; 0 is no effect, 100 is complete control), Barnyardgrass (barnyardgrass [1]; Preemergence, 250 g ai/ha)

O=C1NCC(c2cccc(Br)c2)C1C(=O)Nc1cccc(F)c1F (stereo not drawn) [Compound 309]
90: Crabgrass, Large plant response rating (crabgrass, large; [3]) | Crabgrass, Large plant response rating (crabgrass, large; [4]) | Plant response rating, Foxtail, Giant (giant foxtail; [9]) | Plant response rating, Foxtail, Giant (giant foxtail; [10]) | Foxtail, Giant plant response rating (giant foxtail; [11]) | Barnyardgrass plant response rating (barnyardgrass [1]; [4]) | Plant response rating, Barnyardgrass (barnyardgrass [1]; [12])
50: Plant response rating, Blackgrass (blackgrass; [5]) | Plant response rating (scale of 0 to 100), Lambsquarters (lambsquarters; Preemergence, 250 g ai/ha) | Plant response rating, Pigweed (pigweed; [14]) | Plant response rating, Pigweed (pigweed; [15]) | Plant response rating, Oilseed Rape (oilseed rape; [5])
70: Plant response rating, Lambsquarters (lambsquarters; [16]) | Plant response rating (scale of 0 to 100), Oilseed Rape (oilseed rape; Preemergence, 250 g ai/ha)
15: Plant response rating, Barnyardgrass (barnyardgrass [1]; [14])
40: Plant response rating, Wheat (wheat; [6]) | Plant response rating (scale of 0 to 100), Pigweed (pigweed; Preemergence, 250 g ai/ha) | Plant response rating, Oilseed Rape (oilseed rape; [15])
5: Plant response rating, Blackgrass (blackgrass; [15]) | Plant response rating, Blackgrass (blackgrass; [16]) | Plant response rating, Nutsedge, Yellow (nutsedge, yellow; [14]) | Plant response rating, Oilseed Rape (oilseed rape; [16])
0: Plant response rating, Crabgrass, Large (crabgrass, large; [13]) | Plant response rating, Blackgrass (blackgrass; [13]) | Plant response rating, Blackgrass (blackgrass; [14]) | Blackgrass plant response rating (blackgrass; [3]) | Blackgrass plant response rating (blackgrass; [4]) | Lambsquarters plant response rating (lambsquarters; [3]) | Lambsquarters plant response rating (lambsquarters; [4]) | Pigweed plant response rating (pigweed; [3]) | Pigweed plant response rating (pigweed; [4]) | Plant response rating, Pigweed (pigweed; [5]) | Plant response rating, Nutsedge, Yellow (nutsedge, yellow; [13]) | Plant response rating, Nutsedge, Yellow (nutsedge, yellow; [16]) | Nutsedge, Yellow plant response rating (nutsedge, yellow; [3]) | Nutsedge, Yellow plant response rating (nutsedge, yellow; [4]) | Plant response rating, Nutsedge, Yellow (nutsedge, yellow; [5]) | Plant response rating (scale of 0 to 100), Nutsedge, Yellow (nutsedge, yellow; Preemergence, 250 g ai/ha) | Oilseed Rape plant response rating (oilseed rape; [3]) | Oilseed Rape plant response rating (oilseed rape; [4]) | Plant response rating, Barnyardgrass (barnyardgrass [1]; [13]) | Plant response rating, Rice (rice)
60: Plant response rating, Crabgrass, Large (crabgrass, large; [15]) | Plant response rating, Wheat (wheat; [7]) | Plant response rating, Pigweed (pigweed; [16]) | Plant response rating, Barnyardgrass (barnyardgrass [1]; [16]) | Barnyardgrass plant response rating (barnyardgrass [1]; [3])
45: Plant response rating (scale of 0 to 100), Blackgrass (blackgrass; Preemergence, 250 g ai/ha)
10: Plant response rating, Lambsquarters (lambsquarters; [13])
80: Plant response rating, Foxtail, Giant (giant foxtail; [8])
65: Plant response rating, Crabgrass, Large (crabgrass, large; [16]) | Plant response rating, Lambsquarters (lambsquarters; [14]) | Plant response rating, Lambsquarters (lambsquarters; [15]) | Plant response rating, Barnyardgrass (barnyardgrass [2])
95: Plant response rating, Crabgrass, Large (crabgrass, large; [5]) | Plant response rating (scale of 0 to 100; 0 is no effect, 100 is complete control), Barnyardgrass (barnyardgrass [1]; Preemergence, 250 g ai/ha)
35: Plant response rating, Oilseed Rape (oilseed rape; [13])
30: Plant response rating, Crabgrass, Large (crabgrass, large; [14]) | Plant response rating, Lambsquarters (lambsquarters; [5]) | Plant response rating, Pigweed (pigweed; [13]) | Plant response rating, Nutsedge, Yellow (nutsedge, yellow; [15]) | Plant response rating, Oilseed Rape (oilseed rape; [14])
55: Plant response rating, Barnyardgrass (barnyardgrass [1]; [15])
100: Plant response rating, Ducksalad (ducksalad)
98: Plant response rating (scale of 0 to 100), Crabgrass, Large (crabgrass, large; Preemergence, 250 g ai/ha)
